# Experiments:
# BaF3 [1] = experiment: Inhibition of cell proliferation in mouse BaF3 cells expressing BCR-ABL T315I mutant assessed as cell viability at 100 uM measured after 48 hrs by trypan blue based assay (RVB=100%); type: functional; conditions: read-out: Activity
# U-937 = experiment: Cytotoxicity against human U-937 cells assessed as inhibition of cell growth measured after 72 hrs by MTT assay; type: functional, cell-based; conditions: U-937, 72 h
# BaF3 [2] = experiment: cells; conditions: Mus musculus, BaF3, 72 h
# Description: Cytotoxicity against mouse BAF3 cells expressing native BCR-ABL assessed as inhibition of cell growth measured after 72 hrs by MTT assay
# KU812 cell line = experiment: Cytotoxicity against human KU812 cells assessed as inhibition of cell growth measured after 72 hrs by MTT assay; type: functional, cell-based; conditions: KU812, 72 h
# Jurkat = experiment: Cytotoxicity against human Jurkat cells assessed as inhibition of cell growth measured after 72 hrs by MTT assay; type: functional, cell-based
# K562 = experiment: cells; conditions: Homo sapiens, K562, 72 h
# Description: Cytotoxicity against human K562 cells assessed as cell growth inhibition measured after 72 hrs by MTT assay
# BaF3 [3] = experiment: cells; conditions: Mus musculus, BaF3, 48 h
# Description: Cytotoxicity against mouse BAF3 cells expressing BCR-ABL T315I mutant assessed as inhibition of cell growth measured after 48 hrs by trypan blue assay
# [4] = Toxicity in BALB/c nude mouse xenografted with BaF3 cells expressing BCR-ABL T315I mutant assessed as effect on body weight at 2.5 to 10 mg/kg, po administered once daily for 15 days; type: organism-based; conditions: in vivo, 360 h, dose 2.5-10 mg/kg, time 15 day
compound,measurement,setting,value
CN1CCN(Cc2ccc(NC(=O)N3CCCC(C#Cc4cnc5cccnn45)C3)cc2C(F)(F)F)CC1 (stereo not given),viability at 100 µM,BaF3 [1],84.3%
Cc1ccc(C(=O)Nc2ccc3c(c2)C(F)(F)C[C@@H]3N2CCN(C)CC2)cc1C#Cc1cnc(NC2CC2)nc1,IC50,U-937,165 nM
same,IC50,BaF3 [2],3.5 nM
same,IC50,KU812 cell line,0.2 nM
same,IC50,Jurkat,280 nM
same,IC50,K562,0.6 nM
same,IC50,BaF3 [3],12.4 nM
Cc1ccc(-c2nc3ccc(CN4CCN(C)CC4)cc3[nH]2)cc1C#Cc1cnc(NC2CC2)nc1,viability at 100 µM,BaF3 [1],90.4%
Cc1ccc(C(=O)Nc2ccc3c(c2)C(F)(F)C[C@@H]3N2CCN(C)CC2)cc1C#Cc1cnc2cccnn12.Cl,Activity,[4],Non-Toxic
Cc1ccc(C(=O)Nc2ccc3c(c2)C(F)(F)C(N2CCN(C)CC2)C3)cc1C#Cc1cnc2cccnn12 (stereo not given),viability at 100 µM,BaF3 [1],91.5%

# Reference: ChEMBL document CHEMBL5038588 (J Med Chem, 2021)
